Test results as given in ChEMBL document CHEMBL3885861, “Open TG-GATES”.

Species: Rattus norvegicus
Assay: Open TG-GATES - Regimen: Single
Assay type: toxicity, organism-based, Sprague-Dawley
Set-up: regimen Single, gender Male, age 6 weeks
Details: in vivo, po, 600 mg/kg, route gavage, dose level High; for APTT / Bas / Eos / Fbg / Hb / Ht / Lym / MCH / MCHC / MCV / Mono / Neu / PT / Plat / RBC / Ret / WBC: tissue Blood; for KIDNEY_L / KIDNEY_R / KIDNEY_TOTAL: tissue Kidney; for LIVER: tissue Liver; for A/G / ALP / ALT / AST / BUN / CRE / Ca / Cl / DBIL / GLC / IP / K / LDH / Na / PL / RALB / TBIL / TC / TG / TP / gamma-GTP: tissue Plasma

`CCOC(=O)[C@H](CCc1ccccc1)N[C@@H](C)C(=O)N1CCC[C@H]1C(=O)O` gave a TERMINAL_BW (3 h) of 218.7 g, an APTT (3 h) of 16.5 s and a Bas (3 h) of 0%. It also gave an Eos (3 h) of 1.4%, a Fbg (3 h) of 212 mg/dL and a Hb (3 h) of 13.3 g/dL. For the same compound, the Ht (3 h) was 40.4%, the Lym (3 h) was 74% and the MCH (3 h) was 21.6 pg. It also gave an MCHC (3 h) of 32.9%, an MCV (3 h) of 65.9 fL and a Mono (3 h) of 9.8%. For the same compound, the Neu (3 h) was 14.6%, the PT (3 h) was 12 s and the Plat (3 h) was 109.7 x10_4/uL. It also gave an RBC (3 h) of 614.2 x10_4/ul, a Ret (3 h) of 8.9% and a WBC (3 h) of 93.4 x10_2/uL. The KIDNEY_L (3 h) was 1 g, the KIDNEY_R (3 h) was 1 g and the KIDNEY_TOTAL (3 h) was 1.9 g. The LIVER (3 h) was 10 g, the A/G (3 h) was 2 and the ALP (3 h) was 719.2 IU/L. For the same compound, the ALT (3 h) was 83.4 IU/L, the AST (3 h) was 70.2 IU/L and the BUN (3 h) was 22.8 mg/dL. The CRE (3 h) was 0.6 mg/dL, the Ca (3 h) was 10.3 mg/dL and the Cl (3 h) was 106.8 meq/L. The DBIL (3 h) was 0.022 mg/dL, the GLC (3 h) was 201 mg/dL and the IP (3 h) was 9 mg/dL. The K (3 h) was 4.9 meq/L, the LDH (3 h) was 103.4 IU/L and the Na (3 h) was 138.6 meq/L. It also gave a PL (3 h) of 125.4 mg/dL, an RALB (3 h) of 3.6 g/dL and a TBIL (3 h) of 0.3 mg/dL. For the same compound, the TC (3 h) was 73.2 mg/dL, the TG (3 h) was 59.4 mg/dL and the TP (3 h) was 5.4 g/dL. For the same compound, the gamma-GTP (3 h) was 2.4 IU/L, the TERMINAL_BW (6 h) was 215.5 g and the APTT (6 h) was 16.6 s. The Bas (6 h) was 0%, the Eos (6 h) was 1.2% and the Fbg (6 h) was 211.2 mg/dL. For the same compound, the Hb (6 h) was 13.3 g/dL, the Ht (6 h) was 40.9% and the Lym (6 h) was 75.4%. For the same compound, the MCH (6 h) was 21.2 pg, the MCHC (6 h) was 32.7% and the MCV (6 h) was 64.8 fL. It also gave a Mono (6 h) of 7.4%, a Neu (6 h) of 16.2% and a PT (6 h) of 11.9 s. For the same compound, the Plat (6 h) was 113.3 x10_4/uL, the RBC (6 h) was 632.4 x10_4/ul and the Ret (6 h) was 8.3%. For the same compound, the WBC (6 h) was 96.5 x10_2/uL, the KIDNEY_L (6 h) was 1 g and the KIDNEY_R (6 h) was 1 g. For the same compound, the KIDNEY_TOTAL (6 h) was 2 g, the LIVER (6 h) was 9.1 g and the A/G (6 h) was 2.2. It also gave an ALP (6 h) of 701.6 IU/L, an ALT (6 h) of 82.8 IU/L and an AST (6 h) of 75.8 IU/L. It also gave a BUN (6 h) of 28.2 mg/dL, a CRE (6 h) of 0.6 mg/dL and a Ca (6 h) of 10.5 mg/dL. It also gave a Cl (6 h) of 107.2 meq/L, a DBIL (6 h) of 0.022 mg/dL and a GLC (6 h) of 207 mg/dL. It also gave an IP (6 h) of 9.5 mg/dL, a K (6 h) of 5.2 meq/L and an LDH (6 h) of 100.8 IU/L. For the same compound, the Na (6 h) was 138 meq/L, the PL (6 h) was 126.2 mg/dL and the RALB (6 h) was 3.6 g/dL. It also gave a TBIL (6 h) of 0.5 mg/dL, a TC (6 h) of 68.2 mg/dL and a TG (6 h) of 36.8 mg/dL. For the same compound, the TP (6 h) was 5.2 g/dL, the gamma-GTP (6 h) was 1.6 IU/L and the TERMINAL_BW (9 h) was 218.5 g. It also gave an APTT (9 h) of 16.2 s, a Bas (9 h) of 0% and an Eos (9 h) of 1%. The Fbg (9 h) was 208.8 mg/dL, the Hb (9 h) was 12.7 g/dL and the Ht (9 h) was 39.2%. The Lym (9 h) was 78.6%, the MCH (9 h) was 22.1 pg and the MCHC (9 h) was 32.4%. The MCV (9 h) was 68.3 fL, the Mono (9 h) was 4.2% and the Neu (9 h) was 16.2%. It also gave a PT (9 h) of 11.6 s, a Plat (9 h) of 111.9 x10_4/uL and an RBC (9 h) of 575.2 x10_4/ul. It also gave a Ret (9 h) of 9.9%, a WBC (9 h) of 91.7 x10_2/uL and a KIDNEY_L (9 h) of 1 g. It also gave a KIDNEY_R (9 h) of 1 g, a KIDNEY_TOTAL (9 h) of 1.9 g and an LIVER (9 h) of 8.5 g. It also gave an A/G (9 h) of 1.8, an ALP (9 h) of 827.2 IU/L and an ALT (9 h) of 56.2 IU/L. It also gave an AST (9 h) of 65.6 IU/L, a BUN (9 h) of 40.8 mg/dL and a CRE (9 h) of 0.5 mg/dL. For the same compound, the Ca (9 h) was 10.9 mg/dL, the Cl (9 h) was 109 meq/L and the DBIL (9 h) was 0.032 mg/dL. For the same compound, the GLC (9 h) was 196.4 mg/dL, the IP (9 h) was 11.1 mg/dL and the K (9 h) was 5.8 meq/L. For the same compound, the LDH (9 h) was 66 IU/L, the Na (9 h) was 138.8 meq/L and the PL (9 h) was 133.8 mg/dL. For the same compound, the RALB (9 h) was 3.4 g/dL, the TBIL (9 h) was 0.4 mg/dL and the TC (9 h) was 76 mg/dL. The TG (9 h) was 26 mg/dL, the TP (9 h) was 5.3 g/dL and the gamma-GTP (9 h) was 1.8 IU/L. The TERMINAL_BW (24 h) was 231.8 g, the APTT (24 h) was 16.2 s and the Bas (24 h) was 0%. It also gave an Eos (24 h) of 1.2%, a Fbg (24 h) of 215.6 mg/dL and a Hb (24 h) of 12.8 g/dL. It also gave a Ht (24 h) of 38.7%, a Lym (24 h) of 72.2% and an MCH (24 h) of 21.6 pg. For the same compound, the MCHC (24 h) was 33%, the MCV (24 h) was 65.4 fL and the Mono (24 h) was 13%. For the same compound, the Neu (24 h) was 13.8%, the PT (24 h) was 10.9 s and the Plat (24 h) was 115.6 x10_4/uL. For the same compound, the RBC (24 h) was 592.6 x10_4/ul, the Ret (24 h) was 9.2% and the WBC (24 h) was 103.4 x10_2/uL. For the same compound, the KIDNEY_L (24 h) was 1 g, the KIDNEY_R (24 h) was 1 g and the KIDNEY_TOTAL (24 h) was 2 g. For the same compound, the LIVER (24 h) was 12.5 g, the A/G (24 h) was 2 and the ALP (24 h) was 1036 IU/L. The ALT (24 h) was 34.4 IU/L, the AST (24 h) was 60 IU/L and the BUN (24 h) was 20 mg/dL. It also gave a CRE (24 h) of 0.5 mg/dL, a Ca (24 h) of 11.3 mg/dL and a Cl (24 h) of 104.4 meq/L. For the same compound, the DBIL (24 h) was 0 mg/dL, the GLC (24 h) was 207.4 mg/dL and the IP (24 h) was 8.9 mg/dL. It also gave a K (24 h) of 4.8 meq/L, an LDH (24 h) of 101.6 IU/L and a Na (24 h) of 138.6 meq/L. For the same compound, the PL (24 h) was 170.6 mg/dL, the RALB (24 h) was 3.8 g/dL and the TBIL (24 h) was 0.4 mg/dL. It also gave a TC (24 h) of 89.6 mg/dL, a TG (24 h) of 132.4 mg/dL and a TP (24 h) of 5.6 g/dL. For the same compound, the gamma-GTP (24 h) was 2.2 IU/L.
